{"source": "patent EP2921176A2", "about": "“PHARMACEUTICAL COMPOSITION FOR TREATMENT OF PROSTATIC HYPERPLASIA” (priority 2012, dated 2014)", "key": {"[1]": {"system": "prostate gland (PG) in rats with the benign prostatic hyperplasia (BPH)", "assay_type": "in vivo", "conditions": "for MF PG (mass factor of the PG) / Mass of PG, mg At end of experiment / Mass of PG, mg Initial: rats with BPH", "experimental": "The effect of the new mixtures of peptides on the mass of the prostate of rats in the model of benign prostate hyperplasia caused by testosterone propionate, was studied on 98 white non-pedigree male rats (mass 220-280 g at the beginning of the experiment), and 10 white non- pedigree male rats with a mass of 22-26 g (acute toxicity was assessed in those animals in a separate series o experiments).\nJ. Med. Food., 2007, Vol. 10, No 4, p. 628-635; Liu H.P., Chen G.L., Liu P., Xu X.P. «Amlodipine alone or combined with terazosin improves lower urinary tract disorder in rat models of benign prostatic hyperplasia or detrusor instability: focus on detrusor overactivity\". BJU Int., 2009, Vol. 104, No 11, p. 1752-1757).\n(§1) The animals in those groups were injected intramuscularly (i/m) a mixture of peptides in doses of 50, 150 and 600 mcg/kg/day, alpha1-adrenergic blocker Doxazosin (Zoxon, Zentiva a.s., Czech Republic) in the dose of 1 mg/kg/day and 2nd type 5 alpha-reductase inhibitor Finasteride (Proscar, Merck Sharp & Dohme, The Netherlands) in the dose of 10 mg/kg/day in the stomach (via an intragastral sonde) for 18 days (from day 4), and also the well-known homeopathic drug Prostatine (OOO «Homeofarma», Russia) with 5 pellets into the stomach for 18 days. The rats in the control group received intramuscularly only an isotonic solution of sodium chloride (NaCl) in equivolume quantities.\nExtraction of the prostatic gland (PG) for morphological (light-optical) analysis was done both before and after the reproduction of BPH (on days 22 and 23). The rats were decapitated under general anesthesia with ether, following which the prostatic gland was extracted and weighed (analytical balance «Sartogosm LV 120-A», Russia, inaccuracy-0.5 mg)."}, "[2]": {"system": "prostate gland of rats with BPH", "assay": "Morphological and morphometric (light-optical) analysis of the prostate gland in the rat BPH model", "assay_type": "in vivo", "set-up": "key to COLL (score estimate of the content of collagen in the stroma, median): 0: Absent in the field of vision; 1: Thin friable fibers; 2: Thin oriented bunches; 3: Dense interlayers; 4: Zones of fibrosis", "conditions": "for EPIT (volume fraction of the epithelium) / LUMEN (volume fraction of acinar lumens) / STROMA (volume fraction of stroma): mean ± standard error of the mean", "excerpt": "The material was subjected to standard histological processing in accordance with Example 2. Sections were stained according to Van Gieson, as well as with hematoxyline and eosin. In addition to the morphological description of the preparations, a quantitative analysis of the most important morphological parameters of the PG (Table 2) to assess the dynamics of morphological changes. The prostate's functional status (fibrosis, epithelium hyperplasia, retention of the prostatic fluid in acinuses) can be assessed using the epithelium/stroma and epithelium/duct indices. Table 2. Classes of morphological analysis\nThe morphometric analysis was conducted using a Leica DM2500 microscope fitted with a digital photographic camera. The digital images were used to assess structural changes in PG tissues. Volume fractions of acinuses, stroma and epithelium were defined by point counting. Scoring was used to more accurately determine the quantity of collagen fibers because of their small percentage share (around 1-2%) (Table 3). Table 3. The criteria for scoring the quantity of collagen fibers\nA comparison of the groups in terms of different parameters using the Kruskal-Wallis one-way analysis of variance by ranks, Dan and Wilcoxon-Mann-Whitney test data were obtained on intergroup differences at the set level of significance of p < 0,05. […]\nas §1\nThe material was subjected to standard histological processing. For light-optical analysis, pieces of the PG were fixed with 10% neutral formalin, following which histological sections were prepared. The sections were stained according to Van Gieson, and also with hematoxyline and eosin. In addition to morphological description of the microsections, a quantitative evaluation of the most important morphological parameters of the PG for the purpose of objective assessment of the dynamics of morphological changes. A Leica DM2500 microscope with a digital photographic camera was used for morphometric analysis. The digital images were used to assess structural changes in the PG's tissues."}, "prostate": {"system": "prostate", "conditions": "after 1 to 3 months; cited from earlier work"}, "[3]": {"conditions": "10 mg/kg/day in stomach for 18 days"}, "[4]": {"conditions": "1 mg/kg/day in stomach for 18 days"}}, "note": "Where two headings read alike, the source gives them in different places."}
{"smiles": "CC(C)(C)NC(=O)[C@H]1CC[C@H]2[C@@H]3CC[C@H]4NC(=O)C=C[C@]4(C)[C@H]3CC[C@]12C", "note": "[Finasteride]", "values": [{"measurement": "reduced the mass of the PG (times, compared to the control)", "setting": "[1]; 10 mg/kg/day in stomach for 18 days, p<0,05", "value": 1.4, "unit": "times"}, {"measurement": "MF PG (mass factor of the PG)", "setting": "[1]; [3]", "value": "65±5 mg/100 r mass of the rat"}, {"measurement": "Mass of PG, mg At end of experiment", "setting": "[1]; [3]", "value": "6.5e+10 ± 5e+09", "unit": "pg"}, {"measurement": "Mass of PG, mg Initial", "setting": "[1]; [3]", "value": "1.99e+11 ± 1.4e+10", "unit": "pg"}, {"measurement": "COLL (score estimate of the content of collagen in the stroma, median)", "setting": "[2]; [3]", "value": 1}, {"measurement": "EPIT/LUMEN (ratio of share of epithelium to share of acinar lumens)", "setting": "[2]; [3]", "value": "47.31 ± 1.49"}, {"measurement": "EPIT/STR (ratio of share of epithelium to share of stroma)", "setting": "[2]; [3]", "value": "53.41 ± 1.55"}, {"measurement": "morphological picture of stroma", "setting": "[2]; [3]", "value": "highly edemous"}, {"measurement": "structure (morphology) of epithelium", "setting": "[2]; [3]", "value": "caused injury and death of epithelial cells"}, {"measurement": "EPIT (volume fraction of the epithelium)", "setting": "[2]; [3]", "value": "20.06 ± 0.95", "unit": "%"}, {"measurement": "LUMEN (volume fraction of acinar lumens)", "setting": "[2]; [3]", "value": "42.40 ± 1.17", "unit": "%"}, {"measurement": "STROMA (volume fraction of stroma)", "setting": "[2]; [3]", "value": "37.55 ± 1.14", "unit": "%"}]}
{"smiles": "COc1cc2nc(N3CCN(C(=O)C4COc5ccccc5O4)CC3)nc(N)c2cc1OC", "note": "(stereo not drawn) [Doxazosin]", "values": [{"measurement": "Mass of PG, mg At end of experiment", "setting": "[1]; [4]", "value": "7.7e+10 ± 7e+09", "unit": "pg"}, {"measurement": "Mass of PG, mg Initial", "setting": "[1]; [4]", "value": "2.38e+11 ± 1.8e+10", "unit": "pg"}, {"measurement": "MF PG (mass factor of the PG)", "setting": "[1]; 1 mg/kg/day in the stomach for 18 days", "value": "virtually unreduced"}, {"measurement": "COLL (score estimate of the content of collagen in the stroma, median)", "setting": "[2]; [4]", "value": 2}, {"measurement": "EPIT/LUMEN (ratio of share of epithelium to share of acinar lumens)", "setting": "[2]; [4]", "value": "36.62 ± 1.19"}, {"measurement": "EPIT/STR (ratio of share of epithelium to share of stroma)", "setting": "[2]; [4]", "value": "75.55 ± 1.34"}, {"measurement": "morphological picture of stroma", "setting": "[2]; [4]", "value": "Inflammation and edema were completely absent in the Doxazosin group, but there were zones of fibrosis"}, {"measurement": "structure (morphology) of epithelium", "setting": "[2]; [4]", "value": "acinuses covered with epithelium with normal morphology alternated with acinuses with hyperplastic epithelium"}, {"measurement": "EPIT (volume fraction of the epithelium)", "setting": "[2]; [4]", "value": "19.79 ± 0.84", "unit": "%"}, {"measurement": "LUMEN (volume fraction of acinar lumens)", "setting": "[2]; [4]", "value": "54.03 ± 1.05", "unit": "%"}, {"measurement": "STROMA (volume fraction of stroma)", "setting": "[2]; [4]", "value": "26.19 ± 0.93", "unit": "%"}]}
{"smiles": "C[C@]12C=CC(=O)N[C@@H]1CC[C@@H]1[C@@H]2CC[C@]2(C)[C@@H](C(=O)Nc3cc(C(F)(F)F)ccc3C(F)(F)F)CC[C@@H]12", "note": "[Dutasteride]", "values": [{"measurement": "reduction of the size of the prostate", "setting": "prostate", "value": "more than 20%"}]}
